What was measured:
Male Sprague-Dawley rats [1] = assay: Situational anxiety behavioral model in rats (latency to exit dark cylinder into open field); type: in vivo, rat
Source text: Situational Anxiety Behavioral Studies in Rats. (S)-4-(1-Cyclopropyl-2-methoxyethyl)-6-(6-(difluoromethoxy)-2,5-dimethylpyridin-3-ylamino)-5-oxo-4,5-dihydropyrazine-2-carbonitrile has been evaluated in a situational anxiety model to evaluate its anxiolytic potential. In this model, rats are placed in a small, darkened chamber located in an unfamiliar open field. Vehicle-treated rats spend most of the time within the chamber, consistent with a heightened state of anxiety [Takahashi L. K. et al, Behav. Neurosci. 103: 648-654, (1989)]. This model is sensitive to anxiolytics, including benzodiazepines such as chlordiazepoxide [Yang X-M. et al, J. Pharmacol. Exp. Ther. 255: 1064-1070, (1990)]. In addition, previous CRF1 antagonists, such as DMP696 and DMP904 [McElroy J. F. et al., Psychopharmacology 165: 86-92, (2002); Lelas S. et al., J. Pharmacol. Exp. Ther. 309: 293-302, (2004)] were effective this model. The effects of (S)-4-(1-cyclopropyl-2-methoxyethyl)-6-(6-(difluoromethoxy)-2,5-dimethylpyridin-3-ylamino)-5-oxo-4,5-dihydropyrazine-2-carbonitrile were compared with those of anxiolytic standards chlordiazepoxide (Librium®) and diazepam (Valium®) in this model. Male Sprague-Dawley rats weighing 180-300 g were purchased from Charles River Laboratories (Wilmington, Mass.). The rats were housed individually in suspended wire cages in colony rooms maintained at a constant temperature (21±2° C.) and humidity (50±10%). The rooms were illuminated 12 hours per day. The rats had ad libitum access to food and water throughout the studies. Behavioral studies were conducted between 0600 and 1300 h. Animals were maintained in accordance with the guidelines of the Animal Care and Use Committee of the Bristol-Myers Squibb Company, the “Guide for Care and Use of Laboratory Animals” (Institute of Animal Laboratory Resources, 1996), and the guidelines published in the National Institutes of Health Guide for the Care and Use of Laboratory Animals. Research protocols were approved by the Bristol-Myers Squibb Company Animal Care and Use Committee. All compounds were prepared in 0.25% methylcellulose and administered PO. Chlordiazepoxide, diazepam, and desipramine were purchased from Sigma Chemical Company. (S)-4-(1-Cyclopropyl-2-methoxyethyl)-6-(6-(difluoromethoxy)-2,5-dimethylpyridin-3-ylamino)-5-oxo-4,5-dihydropyrazine-2-carbonitrile was dosed in the volume of 2 ml/kg. All standards were dosed in the volume of 2 ml/kg. For all tests, data were analyzed by analysis of variance, followed by Dunnett's t-tests for individual comparisons. The significance value was set at 0.05. The data are presented in the text and figures as mean±standard error of the mean (SEM). Male Sprague-Dawley rats were habituated to handling and dosing the day before testing. On the day of testing, all compounds were administered PO by gavage 60 minutes before behavioral testing. To initiate testing, each animal was placed in a small galvanized steel cylinder (14 cm length, 10 cm diameter), which was placed lengthwise against one wall of an illuminated open field (106 cm length×92 cm width×50 cm height). The open field was illuminated by a 60-W incandescent bulb and illumination was titrated by a powerstat transformer to a 30-lux reading at the entrance to the cylinder. Behavior was assessed for 15 minutes by a trained observer unaware of treatment assignment. The latency of the animal to exit the cylinder, defined by the placement of all four paws into the open field, and explore the open field was recorded (in seconds). […] The Plexiglas chamber and the cylinder were cleaned with 1.0% glacial acetic acid between animals to prevent olfactory cues from influencing the behavior of subsequently tested animals. Following behavioral testing, animals were sacrificed and plasma samples and brains were taken for analysis of plasma exposure and central receptor occupancy.

Male Sprague-Dawley rats [2] = details: previous CRF1 antagonists, literature (McElroy 2002; Lelas 2004); cited from earlier work
CRF2 receptor = molecular target: T1, CRF2 receptor (Sus scrofa, UniProt B8Q4Z9); assay: CRF2 binding assay, 125I-sauvagine competition, porcine choroid plexus membrane; details: n=3; read-out: IC50 at CRF2 receptors of porcine choroid plexus membrane
T1 construct: the CRF2 receptors endogenously expressed on the porcine choroid plexus membrane; from tissue; host or cells: porcine choroid plexus
T1 sequence (B8Q4Z9 1-411): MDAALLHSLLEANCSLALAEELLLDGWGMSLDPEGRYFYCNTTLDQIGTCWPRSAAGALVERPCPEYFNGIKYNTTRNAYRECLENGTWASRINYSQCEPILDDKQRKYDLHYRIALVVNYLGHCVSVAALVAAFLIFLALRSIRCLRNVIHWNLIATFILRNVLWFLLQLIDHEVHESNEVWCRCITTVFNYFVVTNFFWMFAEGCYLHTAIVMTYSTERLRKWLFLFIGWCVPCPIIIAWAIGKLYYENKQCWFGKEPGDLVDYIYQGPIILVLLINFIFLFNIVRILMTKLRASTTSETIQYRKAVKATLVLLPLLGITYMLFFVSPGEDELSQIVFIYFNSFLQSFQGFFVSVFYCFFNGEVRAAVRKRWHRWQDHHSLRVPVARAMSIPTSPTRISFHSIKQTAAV
Experimental: CRF2 Binding Assay. Frozen porcine choroid plexus was thawed rapidly in assay buffer containing 50 mM Hopes (pH 7.0 at 23° C.), 10 mM MgCl2, 2 mM EGTA, 1 μg/ml aprotinin, 1 μg/ml leupeptin, 1 μg/ml pepstatin A, 0.005% Triton X-100, 10 U/ml bacitracin and 0.1% ovalbumin and homogenized. The suspension was centrifuged at 32000×g for 30 minutes. The resulting supernatant was discarded and the pellet resuspended by homogenization in assay buffer and centrifuged again. The supernatant was discarded and the pellet resuspended by homogenization in assay buffer and frozen at −70° C. On the day of the experiment aliquots of the homogenate were thawed quickly and 10 μg/well added to 100 pM ^125I-sauvagine and drugs in a total volume of 100 μl assay buffer. The assay mixture was incubated for 2 hr at 21° C. Bound and free radioligand were then separated by rapid filtration using glass fiber filters (Whatman GF/B, pretreated with 0.3% PEI) on a Brandel Cell Harvester. Filters were then washed multiple times with ice cold wash buffer (PBS w/o Ca^2+ and Mg^2+, 0.01% Triton X-100 (pH 7.0 at 23° C.)). Non-specific binding was defined using 1 μM α-helical CRF (9-41). Filters were then counted in a Wallac Wizard gamma counter. IC50 values were determined in a five point (five drug concentrations) competition assay using non-linear regression by Microsoft Excel-fit.
Binding Results. […]

Row | SMILES | decrease in exit latency (Male Sprague-Dawley rats [1]; 10 mg/kg, positive control, dose-response study) | decrease in exit latency (Male Sprague-Dawley rats [1]; 10 mg/kg, positive control, first single-dose study) | decrease in exit latency (Male Sprague-Dawley rats [1]; 10 mg/kg, positive control, second single-dose study) | decrease in exit latency (Male Sprague-Dawley rats [1]; 10 mg/kg, positive control, third single-dose study) | effectiveness in the situational anxiety model (Male Sprague-Dawley rats [2]) | IC50 (CRF2 receptor) | effect on exit latency (Male Sprague-Dawley rats [1]; 0.56 mg/kg PO, dose-response study) | effect on exit latency (Male Sprague-Dawley rats [1]; 1.0 mg/kg PO, dose-response study) | significant decrease of exit latency (Male Sprague-Dawley rats [1]; 1.0 mg/kg PO, single-dose study) | decrease in exit latency relative to vehicle-treated controls (Male Sprague-Dawley rats [1]; 1.8 mg/kg PO, dose-response study) | decrease in exit latency (Male Sprague-Dawley rats [1]; 1.8 mg/kg PO, single-dose study) | decrease in exit latency relative to vehicle-treated controls (Male Sprague-Dawley rats [1]; 3.0 mg/kg PO, dose-response study) | decrease in exit latency (Male Sprague-Dawley rats [1]; 3.0 mg/kg PO, single-dose study) | lowest effective dose (decrease of exit latency) (Male Sprague-Dawley rats [1]; PO, 60 minutes before testing) | anxiolytic-like effects, potency compared with standards (Male Sprague-Dawley rats [1]; PO, summary)
1 | COCC(COC)Nc1nc(C)nc2c(-c3ccc(Cl)cc3Cl)c(C)nn12 [DMP696] | 62% | 57% | 74% | 81% | effective |  |  |  |  |  |  |  |  |  | 
2 | COC[C@H](C1CC1)n1cc(C#N)nc(Nc2cc(C)c(OC(F)F)nc2C)c1=O [(S)-4-(1-cyclopropyl-2-methoxyethyl)-6-(6-(difluoromethoxy)-2,5-dimethylpyridin-3-ylamino)-5-oxo-4,5-dihydropyrazine-2-carbonitrile] |  |  |  |  |  | > 10 µM | did not significantly alter exit latency | did not significantly alter exit latency | but not of 1.0 mg/kg | 60% | 53% | 56% | 51% | 1.8 mg/kg | comparable potency to the benzodiazepines diazepam and chlordiazepoxide

Source: patent publication US8372847B2, “Pyrazinone modulator of corticotropin-releasing factor receptor activity” (Bristol-Myers Squibb Company, priority 2008, dated 2013)
